In article PMC6275283, “Inhibitors of BMP‐1/tolloid‐like proteinases: efficacy, selectivity and cellular toxicity” (FEBS Open Bio, 2018) one finds IC50 data, which are given here for four compounds.

Usually IC50 stands for the point on the concentration scale where inhibition reaches its midpoint. The low end stands for inhibition by little substance, the high end for a need for much substance.

The target in one test is T1, Meprin α (Homo sapiens, UniProt Q16819).
T1 construct: gene MEP1A
T1 sequence (Q16819 66-712): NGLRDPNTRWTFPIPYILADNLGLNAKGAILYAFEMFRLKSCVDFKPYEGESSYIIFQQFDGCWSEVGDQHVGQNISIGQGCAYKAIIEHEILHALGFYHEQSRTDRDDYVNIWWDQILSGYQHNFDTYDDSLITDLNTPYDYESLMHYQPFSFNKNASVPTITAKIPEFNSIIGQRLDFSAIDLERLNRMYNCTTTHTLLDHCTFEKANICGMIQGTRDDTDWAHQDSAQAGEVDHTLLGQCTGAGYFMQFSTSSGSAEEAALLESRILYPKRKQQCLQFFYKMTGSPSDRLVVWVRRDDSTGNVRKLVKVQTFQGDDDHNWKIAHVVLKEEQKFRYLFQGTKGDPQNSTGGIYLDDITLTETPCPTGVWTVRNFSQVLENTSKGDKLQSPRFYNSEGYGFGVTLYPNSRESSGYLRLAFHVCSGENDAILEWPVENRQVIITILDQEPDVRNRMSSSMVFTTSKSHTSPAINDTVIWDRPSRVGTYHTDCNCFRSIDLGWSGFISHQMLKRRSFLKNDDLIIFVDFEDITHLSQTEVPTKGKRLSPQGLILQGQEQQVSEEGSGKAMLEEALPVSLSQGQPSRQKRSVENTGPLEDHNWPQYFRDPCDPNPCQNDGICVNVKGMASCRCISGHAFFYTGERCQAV
Briefly: fluorogenic peptide cleavage assay. The test is classed as biochemical. The source says:
fluorogenic peptide cleavage assay on Meprin α

The target of another test is T2, Meprin β (Homo sapiens, UniProt Q16820).
T2 construct: gene MEP1B
T2 sequence (Q16820 62-652): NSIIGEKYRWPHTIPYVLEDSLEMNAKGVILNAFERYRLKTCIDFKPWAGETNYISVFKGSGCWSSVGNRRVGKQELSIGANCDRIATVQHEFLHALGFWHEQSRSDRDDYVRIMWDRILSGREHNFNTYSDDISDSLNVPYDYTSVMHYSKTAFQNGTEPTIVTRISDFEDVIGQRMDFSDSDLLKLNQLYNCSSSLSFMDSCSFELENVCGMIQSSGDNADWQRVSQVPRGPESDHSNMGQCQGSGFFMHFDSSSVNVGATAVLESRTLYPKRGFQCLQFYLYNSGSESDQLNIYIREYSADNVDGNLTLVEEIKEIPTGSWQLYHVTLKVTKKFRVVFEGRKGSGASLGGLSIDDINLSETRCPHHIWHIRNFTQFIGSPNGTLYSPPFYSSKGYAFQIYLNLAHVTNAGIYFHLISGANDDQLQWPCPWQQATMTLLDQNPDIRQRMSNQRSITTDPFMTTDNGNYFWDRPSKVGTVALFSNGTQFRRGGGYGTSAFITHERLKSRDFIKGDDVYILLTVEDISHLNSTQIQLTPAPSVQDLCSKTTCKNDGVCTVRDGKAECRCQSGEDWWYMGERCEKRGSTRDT
Briefly: fluorogenic peptide cleavage assay. It counts as biochemical. The source says: fluorogenic peptide cleavage assay on Meprin β

Setting [1] is: […] Mca-YVADAPK-Dnp, […] enzyme, […] HEPES pH […] NaCl, […] CaCl2, […] °C.

Like-named read-outs stand apart in the source and are kept apart here.

FG‐2575: the values for the IC50 on Meprin α (setting [1]) and on Meprin β (setting [1]) were more than 1000 nM and more than 10000 nM, respectively.

For the compound `CNC(=O)[C@H](Cc1c[nH]c2ccccc12)NC(=O)[C@@H](CC(=O)NO)CC(C)C` [GM6001], the IC50 at Meprin α is 185 ± 12 nM; against Meprin β, more than 10000 nM.

Turning to `COc1ccc(CCN(CCC(=O)NO)S(=O)(=O)c2ccc(NC(=O)NCCc3ccccc3)cc2)cc1` [S33A], the results for the IC50 against Meprin α and against Meprin β were 393 ± 82 nM and more than 10000 nM, respectively.

With `CCCCC[C@H](CC(=O)NO)C(=O)N[C@H](C(=O)N1CCC[C@H]1CO)C(C)C` [Actinonin], the IC50 came to 55 ± 11 nM against Meprin α and 744 ± 29 nM against Meprin β.
